Experimental data: patent US9700541B2, “Seizure therapy” (Creighton University, priority 2012, dated 2017)
Entries after “also recorded” stand apart in the source; their conditions may differ.

Tested on: acute mouse hippocampal slices
Test: Extracellular recordings in CA3 stratum radiatum of acute hippocampal slices after complex I inhibition
Assay type: cell-based
Description: FIG. 5A depicts electrophysiological recordings showing inhibition of mitochondrial complex I of the electron transport chain creates a hyperexcitable environment in acute mouse hippocampal slices. Epilepsy is defined as a neuronal state of hyperexcitability and hypersynchrony. […] The middle trace is an expansion of field potential marked by an asterisk in the top trace. Time-frequency analysis was performed on the signals to examine the component frequencies occurring during the field potentials. High frequency oscillations (HF05) in the 100-200 Hz bandwidth (called ripples) are normal and reflect small clusters of neurons firing action potentials synchronously. […] Fast ripples occur in humans and animals with epilepsy and are biomarkers for seizure-genic foci.
In Kv1.1−/− hippocampal slices, pathological high frequency oscillations are prevalent throughout the in Kv1.1−/− hippocampal network. In addition, there is an increase in neurotransmitter release probabilities at specific hippocampal circuit synapses. To experimentally mimic the mitochondrial pathology seen in epilepsy, a drug that impairs mitochondrial function at respiratory complex I, rotenone, was applied to control tissue. […] Fast ripples occur in humans and animals with epilepsy and are biomarkers for seizure-genic foci.

C=C(C)[C@H]1Cc2c(ccc3c2O[C@@H]2COc4cc(OC)c(OC)cc4[C@@H]2C3=O)O1 [rotenone]
promotion of seizures (acute application of rotenone to control tissue): sufficient to promote seizures | rate and amplitudes of spontaneous field potentials (rotenone 100 nM, 30 min application): increases | high frequency oscillations (fast ripples), spectral organization (rotenone application, control tissue): spectral disorganization and the generation of faster HFOs; also recorded: promotes spectral disorganization and the generation of pathologic high frequency oscillations | intensity of ripples and fast ripples (rotenone applied to slices): increases | seizure-like events following high potassium (8 mM) (rotenone-treated vs vehicle-treated slice): greater in amplitude and longer in duration
